Measured values: patent US5714467A, “Antibacterial and antimalarial hybrid peptides” (The Rockefeller University, priority 1993, dated 1998)
Where no end group is shown, it is not given here.

Columns and labels:
Escherichia coli D22 = assay: inhibition zone assay, lethal concentration; assay type: cell-based; details: Table 2, footnote c: incubation overnight at 37° C.
Description: (§1) The products of the invention were tested for activity against a variety of test organisms selected to represent a number of different types of pathogens some of them known to be particularly virulent by the inhibition zone assay of Hoffmann et al (1981) Insect Biochem. 11 537-548 which is incorporated herein by reference. Thin agar or agarose plates (8.5 cm diameter) were prepared with 6 ml of rich medium containing 100 ug/ml of streptomycin and 2×10^5 viable cells of a test organism resistant to streptomycin. Wells of […] diameter were punched in the plates and 3 ul of serially diluted samples were placed in the wells. The diameters of the zones of inhibition around the wells were measured after overnight incubation at 30° or 37° C. For each peptide the squares of the zone diameters were plotted against the logarithm of the concentration, and from the slopes and intercepts the lethal concentrations were calculated as described by Hultmark (1983) EMBO J. 2, 571-76 or Hultmark et al (1982) Eur. J. Biochem. 127 207-217 each of which being incorporated herein by reference.
(§2) It was observed during testing that basic peptides often bind to agar plates, but not so much to agarose. Therefore those lethal concentrations determined on agar may, in fact, be substantially higher than the actual lethal concentrations.

Candida albicans = assay: inhibition zone assay, lethal concentration; assay type: cell-based; details: Table 2, footnote c: incubation overnight at 37° C.
Description: as §1, §2

[1] = system: Staphylococcus haemolyticus; assay: inhibition zone assay, lethal concentration; assay type: cell-based; details: Table 2, footnote c: incubation overnight at 37° C.
Description: as §1, §2

[2] = system: Xenorhabdus nematophilis Xn21; assay: inhibition zone assay, lethal concentration; assay type: cell-based; details: Table 2, footnote c: incubation overnight at 37° C.
Description: as §1, §2

Micrococcus luteus Ml11 = assay: inhibition zone assay, lethal concentration; assay type: cell-based; details: Table 2, footnote c: incubation overnight at 37° C.
Description: as §1, §2

Bacillus megaterium BM11 = assay: inhibition zone assay, lethal concentration; assay type: cell-based; details: Table 2, footnote c: incubation overnight at 37° C.
Description: as §1, §2

Saccharomyces cerevisiae = assay: inhibition zone assay, lethal concentration; assay type: cell-based; details: Table 2, footnote c: incubation overnight at 37° C.
Description: as §1, §2

[3] = system: Plasmodium falciparium strain F32 (Tanzania), blood stream forms; assay: inhibition of reinvasion of human red cells by malaria parasite; assay type: cell-based, Plasmodium falciparum; details: FIG. 1, blood stream form of Plasmodium falciparium
Description: Hybrid peptides CA(1-13)M(1-13) and CA(1-8)M(1-18) were prepared as described above (see Examples 1-6) and were assayed for activity against the blood stream form of Plasmodium falciparium. For comparison the test included cecropins A and B and the frog skin peptides magainin 2 and PGLa.
The blood stream forms of the malaria parasite Plasmodium falciparium, primarily late trophozoites and early schizonts, were assayed by recording the inhibition of the reinvasion of human red cells by the method of Wahlin, B., et al, (1984) Proc. Nat'l Acad. Sci. USA 81, 7912-16, incorporated herein by reference. Quadruplicate microcultures of strain F32 (Tanzania) were incubated for 20 hrs at 37° C. in a complete tissue culture medium, with or without different concentrations of the peptides to be assayed. After acridine orange staining, the percentage of newly infected red cells was scored in a fluorescence microscope. For each culture 40,000 red cells were analysed for parasitic infection. Duplicate assays were run for CA(1-13)M(1-13).

Sheep Red Cells = assay: lysis of sheep red blood cells (lysis assay or SRC plate assay); assay type: cell-based; details: for Lethal concentration, SRC = Sheep Red Cells: Table 3
Description: These values were obtained by either the lysis assay normally used for melittin or by an adaptation of the antibacterial inhibition zone assay of the above-cited Hultmark et al articles to plates with sheep red cells (SRC). With respect to the latter, sterile agarose plates contained 6 ml of medium With 1% agarose, 0.9% NaCl and 10% SRC suspended in Alsevers solution. A dilution series of peptide was applied in 3 mm wells each loaded with 3 μl of the respective samples. The plates were incubated at 30° C. for 24 h, the zones were recorded and LC values calculated as described in the Hultmark et al articles. Clear zones were recorded after a few hours of incubation and the use of such data gave an LC value of the same order as readings after 24 h. This plate assay is faster and more convenient than the lysis assay normally used for melittin.

[4] = system: Staphylococcus aureus Cowan I; assay: inhibition zone assay, lethal concentration; assay type: cell-based
Description: as §1, §2
(§3) Novel peptides CA(1-8)M(1-18), CA(1-9)M(1-17), CB(1-13)M(1-13), CA(1-17)M(1-9), CA(1-18)M(1-8), M(1-13)CA(1-22) and M(1-13)CA(1-13) were prepared as described above (see Examples 1-6). These novel peptides and CA, CB, and M were tested for activity against a variety of organisms selected to represent a number of different types of pathogens, some of them known to be particularly virulent by the inhibition zone assay of Hoffmann et al (1981), Insect Biochem. 11 537-48. As in Examples 1-6, thin agarose plates were prepared with the respective organisms. The diameters of the zones of inhibition were measured after overnight incubation at 30° C. The lethal concentrations were determined as described above (see Examples 1-6; Hultmark et al articles cited thereat).

Bacillus subtilis Bs11 = assay: inhibition zone assay, lethal concentration; assay type: cell-based
Description: as §1, §2, §3

Streptococcus pyogenes = assay: inhibition zone assay, lethal concentration; assay type: cell-based
Description: as §1, §2, §3

[5] = system: Pseudomonas aeruginosa OT97; assay: inhibition zone assay, lethal concentration; assay type: cell-based
Description: as §1, §2, §3

Escherichia coli D21 = assay: inhibition zone assay, lethal concentration; assay type: cell-based
Description: as §1, §2, §3

[6] = Table 2, footnote a: incubation overnight at 30° C. as well as at 37° C.
[7] = Table 3, agarose plates, overnight incubation at 30° C.
[8] = Table 2, footnote b: incubation overnight at 30° C.
[9] = Table 2, footnote c: incubation overnight at 37° C.
[10] = Table 2, no incubation footnote

With “KWKLFKKIEKVGQNIRDGIIKAGPAVAVVGQATQIAK-NH2 [CA(1-37), Cecropin A]” the “Lethal concentration, Escherichia coli D22” value (Escherichia coli D22) was 0.5 µM, the “Lethal concentration, Candida albicans” value (Candida albicans) was greater than 200 µM and the “Lethal concentration, Staphylococcus haemolyticus” value [1] was 3 µM. For the same molecule, the “Lethal concentration, Xenorhabdus nematophilis Xn21” value [2] was 2 µM, the “Lethal concentration, Micrococcus luteus Ml11” value (Micrococcus luteus Ml11) was 1 µM and the “Lethal concentration, Bacillus megaterium BM11” value (Bacillus megaterium BM11) was 1 µM. For the same molecule, the “Lethal concentration, Saccharomyces cerevisiae” value (Saccharomyces cerevisiae) was 60 µM, the “antimalarial potency in words” value [3] was “negligible activity” and the “Lethal concentration, Sheep Red Cells” value (Sheep Red Cells; [6]) was greater than 200 µM. For the same molecule, the “Lethal concentration, SRC = Sheep Red Cells” value (Sheep Red Cells) was 200 µM, the “Lethal concentration, Staphylococcus aureus Cowan I” value [4, 6] was greater than 200 µM and the “Lethal concentration, Staph = S. aureus Cowan I” value [4, 7] was 200 µM. The “Lethal concentration, Bacillus subtilis Bs11 (Medium E)” value (Bacillus subtilis Bs11; Table 2, Medium E, footnote c: incubation overnight at 37° C.) was 200 µM, the “Lethal concentration, Bacillus subtilis Bs11” value (Bacillus subtilis Bs11; [6]) was 4 µM and the “Lethal concentration, Bs11 = B. subtilis” value (Bacillus subtilis Bs11; [7]) was 4 µM. For the same molecule, the “Lethal concentration, Bs11 + ME = B. subtilis, plates prepared with medium E” value (Bacillus subtilis Bs11; Table 3, medium E, agarose plates, overnight incubation at 30° C.) was 200 µM, the “Lethal concentration, Streptococcus pyogenes” value (Streptococcus pyogenes; [8]) was 4 µM and the “Lethal concentration, Streptococcus pyogenes” value (Streptococcus pyogenes; [9]) was 6 µM. The “Lethal concentration, Strep = S. pyogenes” value (Streptococcus pyogenes; [7]) was 4 µM, the “Lethal concentration, Pseudomonas aeruginosa OT97” value [5, 8] was 2 µM and the “Lethal concentration, Pseudomonas aeruginosa OT97” value [5, 9] was 1.6 µM. The “Lethal concentration, OT97 = P. aeruginosa” value [5, 7] was 2 µM, the “Lethal concentration, Escherichia coli D21” value (Escherichia coli D21; [6]) was 0.2 µM and the “Lethal concentration, D21 = E. coli” value (Escherichia coli D21; [7]) was 0.2 µM.

With “WNPFKELEKVGQRVRDAVISAGPAVATVAQATALAK-NH2 [CD(2-37), Cecropin D]” the “Lethal concentration, Escherichia coli D22” value (Escherichia coli D22) was 0.6 µM, the “Lethal concentration, Micrococcus luteus Ml11” value (Micrococcus luteus Ml11) was 12 µM and the “Lethal concentration, Bacillus megaterium BM11” value (Bacillus megaterium BM11) was 30 µM. The “Lethal concentration, Bacillus subtilis Bs11” value (Bacillus subtilis Bs11; [9]) was 100 µM, the “Lethal concentration, Pseudomonas aeruginosa OT97” value [5, 9] was 90 µM and the “Lethal concentration, Escherichia coli D21” value (Escherichia coli D21; [9]) was 3.6 µM.

With CC[C@H](C)[C@H](NC(=O)[C@H](CCC(N)=O)NC(=O)[C@@H](NC(=O)[C@H](C)NC(=O)[C@H](CCC(N)=O)NC(=O)CNC(=O)[C@@H](NC(=O)[C@@H](NC(=O)[C@H](C)NC(=O)[C@@H](NC(=O)[C@H](C)N)C(C)C)C(C)C)C(C)C)[C@@H](C)O)C(=O)N[C@@H](C)C(=O)N[C@@H](CCCCN)C(=O)N[C@@H](CCCCN)C(=O)N[C@@H](Cc1c[nH]c2ccccc12)C(=O)N[C@@H](CCCCN)C(=O)N[C@@H](CC(C)C)C(=O)N[C@@H](Cc1ccccc1)C(=O)N[C@@H](CCCCN)C(=O)N[C@@H](CCCCN)C(=O)N[C@H](C(=O)N[C@@H](CCC(=O)O)C(=O)N[C@@H](CCCCN)C(=O)N[C@H](C(=O)NCC(=O)N[C@@H](CCC(N)=O)C(N)=O)C(C)C)[C@@H](C)CC [CA(25-37)CA(1-13)] the “Lethal concentration, Sheep Red Cells” value (Sheep Red Cells; [8]) was greater than 300 µM.

CC[C@H](C)[C@H](NC(=O)CN)C(=O)NCC(=O)N[C@@H](C)C(=O)N[C@H](C(=O)N[C@@H](CC(C)C)C(=O)N[C@@H](CCCCN)C(=O)N[C@H](C(=O)N[C@@H](CC(C)C)C(=O)N[C@H](C(=O)N[C@H](C(=O)NCC(=O)N[C@@H](CC(C)C)C(=O)N[C@@H](CCCCN)C(=O)N[C@@H](Cc1c[nH]c2ccccc12)C(=O)N[C@@H](CCCCN)C(=O)N[C@@H](CC(C)C)C(=O)N[C@@H](Cc1ccccc1)C(=O)N[C@@H](CCCCN)C(=O)N[C@@H](CCCCN)C(=O)N[C@H](C(=O)N[C@@H](CCC(=O)O)C(=O)N[C@@H](CCCCN)C(=O)N[C@H](C(=O)NCC(=O)N[C@@H](CCC(N)=O)C(N)=O)C(C)C)[C@@H](C)CC)[C@@H](C)O)[C@@H](C)O)C(C)C)C(C)C [M(1-13)CA(1-13)] was tested, and the “Lethal concentration, Sheep Red Cells” value (Sheep Red Cells; [10]) was 80 µM and the “Lethal concentration, SRC = Sheep Red Cells” value (Sheep Red Cells) was 80 µM.

With CC[C@H](C)[C@H](NC(=O)CNC(=O)[C@@H](NC(=O)[C@H](CCCCN)NC(=O)[C@H](CCCCN)NC(=O)[C@H](Cc1ccccc1)NC(=O)[C@H](CC(C)C)NC(=O)[C@H](CCCCN)NC(=O)[C@H](Cc1c[nH]c2ccccc12)NC(=O)[C@@H](N)CCCCN)[C@@H](C)CC)C(=O)NCC(=O)N[C@@H](C)C(=O)N[C@H](C(=O)N[C@@H](CC(C)C)C(=O)N[C@@H](CCCCN)C(=O)N[C@H](C(=O)N[C@@H](CC(C)C)C(=O)N[C@H](C(=O)N[C@H](C(=O)NCC(N)=O)[C@@H](C)O)[C@@H](C)O)C(C)C)C(C)C [CA(1-8)M(1-12)] the “Lethal concentration, Sheep Red Cells” value (Sheep Red Cells; [10]) was greater than 600 µM.
